Consider 81 targets from the supplement of paper PMC6411743.

Compound in the test: Nc1ncnc2c1ncn2[C@@H]1O[C@H](COP(=O)(O)OP(=O)(O)OP(=O)(O)O)[C@@H](O)[C@H]1O [adenosine triphosphate]
Put plainly: pEC50 of ATP-induced change in protein thermal stability (2D-TPP). How it is done: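 2D thermal proteome profiling in mechanically disrupted Jurkat crude lysate. Lysate was treated 10 min at room temperature with Na-ATP (0, 0.005, 0.05, 0.5, 2 mM), heated to 12 temperatures (42-63.9 °C) for 3 min, and soluble protein was quantified by TMT10 LC-MS/MS. pEC50 is the median over replicates of dose-response fits at the lowest temperature showing a fold change of at least 1.5 (FDR-controlled hits).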

Some results are limits rather than exact numbers.

UniProt Q01518, sequence (Q01518 whole entry): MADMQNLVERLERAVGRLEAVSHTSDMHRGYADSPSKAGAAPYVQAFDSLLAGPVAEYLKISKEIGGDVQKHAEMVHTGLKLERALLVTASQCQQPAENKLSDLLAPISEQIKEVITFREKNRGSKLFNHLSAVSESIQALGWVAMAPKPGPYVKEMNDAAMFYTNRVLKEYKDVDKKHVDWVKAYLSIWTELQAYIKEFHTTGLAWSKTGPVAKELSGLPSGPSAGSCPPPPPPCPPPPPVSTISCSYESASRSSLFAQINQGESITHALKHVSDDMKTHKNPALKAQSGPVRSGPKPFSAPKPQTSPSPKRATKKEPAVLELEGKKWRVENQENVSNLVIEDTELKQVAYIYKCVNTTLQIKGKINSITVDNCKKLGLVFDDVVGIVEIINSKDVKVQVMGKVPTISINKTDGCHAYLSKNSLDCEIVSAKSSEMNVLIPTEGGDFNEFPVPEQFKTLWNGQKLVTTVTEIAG
UniProt Q96RR4, sequence (Q96RR4 whole entry, looked up): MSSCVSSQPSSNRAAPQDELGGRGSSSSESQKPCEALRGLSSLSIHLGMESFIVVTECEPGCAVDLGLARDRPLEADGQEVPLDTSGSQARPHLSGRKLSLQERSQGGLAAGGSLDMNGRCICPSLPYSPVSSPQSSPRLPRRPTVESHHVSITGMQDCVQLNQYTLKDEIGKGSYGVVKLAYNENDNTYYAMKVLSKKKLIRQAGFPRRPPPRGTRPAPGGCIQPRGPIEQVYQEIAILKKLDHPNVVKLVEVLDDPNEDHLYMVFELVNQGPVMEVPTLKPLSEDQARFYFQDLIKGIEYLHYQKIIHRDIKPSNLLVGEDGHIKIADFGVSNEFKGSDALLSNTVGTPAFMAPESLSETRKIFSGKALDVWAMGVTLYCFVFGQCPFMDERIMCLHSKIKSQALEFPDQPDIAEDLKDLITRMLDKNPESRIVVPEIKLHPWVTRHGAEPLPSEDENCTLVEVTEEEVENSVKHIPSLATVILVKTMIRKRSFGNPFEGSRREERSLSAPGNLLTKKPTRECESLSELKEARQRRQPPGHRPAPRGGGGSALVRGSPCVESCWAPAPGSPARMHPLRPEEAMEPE
UniProt Q01432, sequence (Q01432 whole entry): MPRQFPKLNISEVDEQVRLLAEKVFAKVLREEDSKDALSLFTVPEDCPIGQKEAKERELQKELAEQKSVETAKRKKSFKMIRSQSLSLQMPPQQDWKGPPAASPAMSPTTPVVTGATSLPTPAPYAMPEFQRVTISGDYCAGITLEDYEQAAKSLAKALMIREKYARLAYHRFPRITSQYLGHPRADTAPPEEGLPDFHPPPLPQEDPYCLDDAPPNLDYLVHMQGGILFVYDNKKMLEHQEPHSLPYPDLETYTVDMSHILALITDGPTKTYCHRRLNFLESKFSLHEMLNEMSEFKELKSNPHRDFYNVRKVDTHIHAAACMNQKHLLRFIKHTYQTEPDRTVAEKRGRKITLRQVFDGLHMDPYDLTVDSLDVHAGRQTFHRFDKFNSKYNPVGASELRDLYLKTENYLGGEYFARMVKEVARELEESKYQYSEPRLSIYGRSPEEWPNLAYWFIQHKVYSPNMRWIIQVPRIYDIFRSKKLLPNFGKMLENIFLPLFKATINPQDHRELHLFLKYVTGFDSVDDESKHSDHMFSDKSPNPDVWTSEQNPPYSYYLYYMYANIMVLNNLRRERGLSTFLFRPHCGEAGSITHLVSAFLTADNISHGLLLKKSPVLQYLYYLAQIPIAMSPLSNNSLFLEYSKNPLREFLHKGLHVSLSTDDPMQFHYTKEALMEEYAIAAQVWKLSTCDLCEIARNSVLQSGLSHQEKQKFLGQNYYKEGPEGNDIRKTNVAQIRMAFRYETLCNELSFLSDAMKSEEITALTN
UniProt O00170, sequence (O00170 whole entry): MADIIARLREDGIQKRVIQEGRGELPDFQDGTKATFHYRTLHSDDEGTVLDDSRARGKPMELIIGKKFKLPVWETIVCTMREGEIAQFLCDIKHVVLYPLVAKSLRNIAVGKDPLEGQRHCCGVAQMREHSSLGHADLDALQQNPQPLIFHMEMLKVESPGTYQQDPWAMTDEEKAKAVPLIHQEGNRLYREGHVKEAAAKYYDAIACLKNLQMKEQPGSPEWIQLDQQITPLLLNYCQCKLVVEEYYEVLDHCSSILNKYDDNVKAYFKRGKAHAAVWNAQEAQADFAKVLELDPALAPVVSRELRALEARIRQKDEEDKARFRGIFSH
UniProt Q9NZ32, sequence (Q9NZ32 whole entry): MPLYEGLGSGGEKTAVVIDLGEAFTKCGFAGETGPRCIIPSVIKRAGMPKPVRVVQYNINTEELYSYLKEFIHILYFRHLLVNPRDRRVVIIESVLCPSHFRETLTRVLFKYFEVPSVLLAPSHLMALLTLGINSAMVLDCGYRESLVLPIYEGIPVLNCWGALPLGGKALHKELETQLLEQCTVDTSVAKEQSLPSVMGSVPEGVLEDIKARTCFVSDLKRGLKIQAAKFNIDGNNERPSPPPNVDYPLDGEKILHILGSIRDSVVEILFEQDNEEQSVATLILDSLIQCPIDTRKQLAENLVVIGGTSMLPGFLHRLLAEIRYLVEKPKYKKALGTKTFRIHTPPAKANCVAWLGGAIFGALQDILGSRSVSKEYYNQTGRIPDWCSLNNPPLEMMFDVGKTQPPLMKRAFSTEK
UniProt Q5JTZ9, sequence (Q5JTZ9 whole entry): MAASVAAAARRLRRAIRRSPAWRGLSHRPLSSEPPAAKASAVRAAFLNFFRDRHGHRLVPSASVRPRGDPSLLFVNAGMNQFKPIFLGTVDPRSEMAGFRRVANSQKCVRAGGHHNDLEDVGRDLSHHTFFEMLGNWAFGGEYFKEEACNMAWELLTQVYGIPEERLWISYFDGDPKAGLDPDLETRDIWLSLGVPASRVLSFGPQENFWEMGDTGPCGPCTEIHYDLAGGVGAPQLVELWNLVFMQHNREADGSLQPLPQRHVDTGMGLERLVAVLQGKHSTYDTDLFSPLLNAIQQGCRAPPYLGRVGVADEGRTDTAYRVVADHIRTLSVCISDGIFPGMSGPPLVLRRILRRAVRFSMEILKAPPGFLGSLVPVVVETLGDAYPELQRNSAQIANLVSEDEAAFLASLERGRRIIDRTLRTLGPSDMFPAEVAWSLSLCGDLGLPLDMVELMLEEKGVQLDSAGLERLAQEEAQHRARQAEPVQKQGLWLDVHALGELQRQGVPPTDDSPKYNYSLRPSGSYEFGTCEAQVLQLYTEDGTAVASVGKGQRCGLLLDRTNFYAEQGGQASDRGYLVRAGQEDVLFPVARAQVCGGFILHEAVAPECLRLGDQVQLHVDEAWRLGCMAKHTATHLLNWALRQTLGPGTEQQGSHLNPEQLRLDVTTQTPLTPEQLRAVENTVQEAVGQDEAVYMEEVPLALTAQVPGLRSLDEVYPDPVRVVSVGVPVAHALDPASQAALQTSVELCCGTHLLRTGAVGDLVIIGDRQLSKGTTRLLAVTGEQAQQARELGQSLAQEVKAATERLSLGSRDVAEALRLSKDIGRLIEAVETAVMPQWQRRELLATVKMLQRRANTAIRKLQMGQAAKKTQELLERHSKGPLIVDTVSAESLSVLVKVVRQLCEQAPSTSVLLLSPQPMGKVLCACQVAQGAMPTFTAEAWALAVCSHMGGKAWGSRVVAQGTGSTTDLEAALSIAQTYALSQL
UniProt P78540, sequence (P78540 whole entry): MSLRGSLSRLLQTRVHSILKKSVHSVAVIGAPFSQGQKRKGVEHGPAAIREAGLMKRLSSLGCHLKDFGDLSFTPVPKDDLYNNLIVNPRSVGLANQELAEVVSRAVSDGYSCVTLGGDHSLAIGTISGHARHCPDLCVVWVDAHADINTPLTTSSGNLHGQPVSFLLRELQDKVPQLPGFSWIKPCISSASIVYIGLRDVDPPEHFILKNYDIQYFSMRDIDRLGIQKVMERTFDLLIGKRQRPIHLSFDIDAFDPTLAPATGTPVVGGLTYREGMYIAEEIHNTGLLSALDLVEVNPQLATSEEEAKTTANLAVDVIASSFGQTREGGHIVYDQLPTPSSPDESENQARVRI
UniProt Q13555, sequence (Q13555 whole entry): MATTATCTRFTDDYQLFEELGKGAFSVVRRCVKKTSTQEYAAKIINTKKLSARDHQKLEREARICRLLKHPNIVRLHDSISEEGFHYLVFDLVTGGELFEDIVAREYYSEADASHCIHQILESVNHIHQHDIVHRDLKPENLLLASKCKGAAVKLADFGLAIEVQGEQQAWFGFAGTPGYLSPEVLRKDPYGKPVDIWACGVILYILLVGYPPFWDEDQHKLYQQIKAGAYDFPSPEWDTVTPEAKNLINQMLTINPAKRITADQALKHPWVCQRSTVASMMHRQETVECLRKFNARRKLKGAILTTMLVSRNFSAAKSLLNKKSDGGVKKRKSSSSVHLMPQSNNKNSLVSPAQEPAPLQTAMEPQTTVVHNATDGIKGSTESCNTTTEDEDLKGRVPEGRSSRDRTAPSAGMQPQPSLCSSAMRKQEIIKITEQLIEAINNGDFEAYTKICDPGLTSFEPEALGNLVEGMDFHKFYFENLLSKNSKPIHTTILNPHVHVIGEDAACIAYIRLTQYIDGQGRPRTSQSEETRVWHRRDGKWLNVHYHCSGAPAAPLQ
UniProt O95067, sequence (O95067 whole entry): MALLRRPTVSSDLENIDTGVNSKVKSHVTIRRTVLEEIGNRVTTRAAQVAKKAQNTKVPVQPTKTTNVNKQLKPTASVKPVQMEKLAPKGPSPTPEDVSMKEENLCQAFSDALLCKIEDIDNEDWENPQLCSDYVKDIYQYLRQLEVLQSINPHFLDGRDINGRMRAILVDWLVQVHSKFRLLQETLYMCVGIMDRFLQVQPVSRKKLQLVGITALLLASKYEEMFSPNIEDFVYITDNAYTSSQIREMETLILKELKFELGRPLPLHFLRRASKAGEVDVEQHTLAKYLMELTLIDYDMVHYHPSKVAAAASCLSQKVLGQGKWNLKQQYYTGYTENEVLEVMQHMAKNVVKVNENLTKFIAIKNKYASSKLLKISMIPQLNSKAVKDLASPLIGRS

Usually pEC50 stands for the negative decadic logarithm of the EC50, by convention in mol/L. Take A0AVT1 (effect direction: stabilized): the pEC50 stood at 4.35.
“AARS2 (effect direction: stabilized) (UniProt Q5JTZ9)”: the pEC50 is 3.29.
The value for “AARS (effect direction: stabilized) (UniProt P49588)” was 4.2.
For “ABCB8 (effect direction: stabilized) (UniProt Q9NUT2)”, the pEC50 came out at 3.5.
The value for “ABCB10 (effect direction: stabilized) (UniProt Q9NRK6)” was 4.06; that for “ABCC1 (effect direction: stabilized) (UniProt P33527)” was 3.46; that for “ACADM (effect direction: stabilized) (UniProt P11310)” was < 2.7.
The value for “ACLY (effect direction: stabilized) (UniProt P53396)” was 3.16.
The same measure for “ACSL1 (effect direction: stabilized) (UniProt P33121)”: 3.63.
As for “ACSL6 (effect direction: stabilized) (UniProt Q9UKU0)”, the pEC50 came out at 3.69.
The value for “ACTL6A (effect direction: stabilized) (UniProt O96019)” was 3.4; that for “ACTR1B (effect direction: stabilized) (UniProt P42025)” was 4.23; that for “ACTR10 (effect direction: destabilized) (UniProt Q9NZ32)” was < 2.7.
“ADK (effect direction: stabilized) (UniProt P55263)”: the pEC50 amounted to 3.82.
For “ADRM1 (effect direction: stabilized) (UniProt Q16186)”, the pEC50 was determined as 4.04.
On to “AFF4 (effect direction: stabilized) (UniProt Q9UHB7)”, for which the pEC50 was 3.8.
The value for “AGK (effect direction: stabilized) (UniProt Q53H12)” was 2.97; that for “AGPAT5 (effect direction: stabilized) (UniProt Q9NUQ2)” was 3.89; that for “AHCY (effect direction: stabilized) (UniProt P23526)” was 4.33.
Consider “AHSA1 (effect direction: stabilized) (UniProt O95433)”, for which the pEC50 was < 2.7.
The value for “AIP (effect direction: stabilized) (UniProt O00170)” was < 2.7; that for “AK2 (effect direction: stabilized) (UniProt P54819)” was 4.01.
The same measure for “ALDH5A1 (effect direction: stabilized) (UniProt P51649)”: 3.06; for “ALDH6A1 (effect direction: stabilized) (UniProt Q02252)”: 3.53; for “ALDH9A1 (effect direction: stabilized) (UniProt P49189)”: 2.9.
The value for “ALDH18A1 (effect direction: stabilized) (UniProt P54886)” was 3.12; that for “ALKBH5 (effect direction: stabilized) (UniProt Q6P6C2)” was 3.65.
“AMPD3 (effect direction: stabilized) (UniProt Q01432)”: the pEC50 is 2.95.
The same measure for “ANKMY2 (effect direction: stabilized) (UniProt Q8IV38)”: < 2.7; for “ANP32A (effect direction: stabilized) (UniProt P39687)”: < 2.7; for “ANP32E (effect direction: stabilized) (UniProt Q9BTT0)”: < 2.7.
With “ANXA5 (effect direction: stabilized) (UniProt P08758)”, the pEC50 turned out to be 2.79.
The same measure for “ANXA6 (effect direction: stabilized) (UniProt P08133)”: < 2.7.
The value for “APRT (effect direction: destabilized) (UniProt P07741)” was 4.41; that for “ARG2 (effect direction: destabilized) (UniProt P78540)” was 3.17.
For “ARHGAP1 (effect direction: stabilized) (UniProt Q07960)”, the pEC50 was determined as 3.14.
The same measure for “ARHGDIB (effect direction: stabilized) (UniProt P52566)”: < 2.7.
For the target “ARID1A (effect direction: stabilized) (UniProt O14497)”, the pEC50 was < 2.7.
For “ARMC1 (effect direction: stabilized) (UniProt Q9NVT9)”, the pEC50 is < 2.7.
Turning to “ARPC3 (effect direction: stabilized) (UniProt O15145)”, the pEC50 turned out to be 2.88.
The value for “ARPC5L (effect direction: stabilized) (UniProt Q9BPX5)” was 4.05; that for “ASNA1 (effect direction: stabilized) (UniProt O43681)” was 3.31; that for “ASNS (effect direction: stabilized) (UniProt P08243)” was 3.18.
For the target “ASPSCR1 (effect direction: stabilized) (UniProt Q9BZE9)”, the negative logarithm of the EC50 (pEC50) came out at 3.92.
The same measure for “ASS1 (effect direction: stabilized) (UniProt P00966)”: 3.66; for “ATAD2B (effect direction: destabilized) (UniProt Q9ULI0)”: 3.06.
For the target “ATG7 (effect direction: stabilized) (UniProt O95352)”, the pEC50 was determined as 3.74.
For the target “ATIC (effect direction: stabilized) (UniProt P31939)”, the pEC50 was < 2.7.
Regarding “ATP1A1 (effect direction: stabilized) (UniProt P05023)”, the pEC50 amounted to 3.18.
For the target “ATP2A3 (effect direction: stabilized) (UniProt Q93084)”, the negative logarithm of the EC50 (pEC50) was determined as 3.22.
The value for “ATP2B4 (effect direction: stabilized) (UniProt P23634)” was 3.22; that for “ATP2C1 (effect direction: stabilized) (UniProt P98194)” was 3.66; that for “ATP11B (effect direction: stabilized) (UniProt Q9Y2G3)” was 4.15.
The value for “ATXN10 (effect direction: stabilized) (UniProt Q9UBB4)” was < 2.7; that for “BCL7A (effect direction: destabilized) (UniProt Q4VC05)” was 3.03.
The value for “BICD2 (effect direction: stabilized) (UniProt Q8TD16)” was < 2.7.
For “BLVRB (effect direction: stabilized) (UniProt P30043)”, the pEC50 amounted to 2.87.
For “BNIP2 (effect direction: stabilized) (UniProt Q12982)”, the pEC50 was < 2.7.
The same measure for “BOP1 (effect direction: stabilized) (UniProt Q14137)”: < 2.7; for “C1QBP (effect direction: stabilized) (UniProt Q07021)”: < 2.7.
The value for “C12orf29 (effect direction: destabilized) (UniProt Q8N999)” was 3.11; that for “CAB39 (effect direction: stabilized) (UniProt Q9Y376)” was 3.15; that for “CACYBP (effect direction: stabilized) (UniProt Q9HB71)” was 2.95.
For the target “CAMK2G (effect direction: stabilized) (UniProt Q13555)”, the pEC50 came to 3.4.
On to “CAMKK2 (effect direction: stabilized) (UniProt Q96RR4)”, for which the negative logarithm of the EC50 (pEC50) was 3.63.
In the case of “CAND1 (effect direction: stabilized) (UniProt Q86VP6)”, the pEC50 was found to be 2.95.
In the case of “CAP1 (effect direction: stabilized) (UniProt Q01518)”, the negative logarithm of the EC50 (pEC50) was found to be 5.
The value for “CAPN1 (effect direction: stabilized) (UniProt P07384)” was 3.17.
The same measure for “CAPNS1 (effect direction: stabilized) (UniProt P04632)”: 2.86; for “CARS2 (effect direction: stabilized) (UniProt Q9HA77)”: 3.14; for “CARS (effect direction: stabilized) (UniProt P49589)”: 3.63.
The same measure for “CBWD1 (effect direction: stabilized) (UniProt Q9BRT8)”: 2.96.
With “CCDC12 (effect direction: destabilized) (UniProt Q8WUD4)”, the pEC50 turned out to be 3.49.
For the target “CCDC86 (effect direction: stabilized) (UniProt Q9H6F5)”, the pEC50 is < 2.7.
As to “CCNB1 (effect direction: stabilized) (UniProt P14635)”, the pEC50 was 4.27.
The value for “CCNB2 (effect direction: stabilized) (UniProt O95067)” was 4.13.
The same measure for “CCT5 (effect direction: stabilized) (UniProt P48643)”: 3.02; for “CCT6A (effect direction: stabilized) (UniProt P40227)”: 4.38; for “CCT7 (effect direction: stabilized) (UniProt Q99832)”: 4.39.
In the case of “CDC40 (effect direction: destabilized) (UniProt O60508)”, the pEC50 was found to be 3.22.
The same measure for “CDIPT (effect direction: destabilized) (UniProt O14735)”: 2.77.
